Data reported in patent US9290476B2, “Methylene linked quinolinyl modulators of RORγt” (Janssen Pharmaceutica NV, priority 2012, dated 2016).
Where “and” joins values, the source holds several entries; their conditions need not be identical. Equal values may be shown once. Where a name gives a salt, the structure may show the parent alone. Read-outs that look alike come from different tables or passages of the source.

Experiments:
[1] = target: human RORγt LBD (Homo sapiens (Human), UniProt P51449); assay: RORγt reporter assay (GAL4-RORγt LBD luciferase in HEK293T cells); type: cell-based; details: for IC50 / RORγt reporter Assay, % inhibition @ 6 μM: HEK293T cells; for IC50: 24 hours compound treatment; for inhibition at 6 µM: HEK-293T, read-out: RORγt reporter Assay, % inhibition @ 6 μM, HEK293T cells, 6 μM
human RORγt LBD, sequence (P51449 258-518): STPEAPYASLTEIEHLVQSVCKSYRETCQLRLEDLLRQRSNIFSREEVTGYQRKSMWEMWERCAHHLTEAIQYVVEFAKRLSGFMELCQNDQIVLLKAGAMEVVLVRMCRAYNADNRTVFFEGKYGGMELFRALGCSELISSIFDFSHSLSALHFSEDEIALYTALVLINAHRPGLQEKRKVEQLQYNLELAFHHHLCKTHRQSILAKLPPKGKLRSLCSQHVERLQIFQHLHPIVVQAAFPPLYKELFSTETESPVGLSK
Procedure, shortened: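 HEK293T cells transiently co-transfected with GAL4-DBD–wild-type human RORγt LBD (pBIND) and GAL4-responsive firefly luciferase reporter (pGL4.31); renilla luciferase from pBIND normalises transfection/viability. Cells in phenol-red-free DMEM, 5% lipid-reduced FCS, treated with compound 24 h. Firefly/renilla ratio plotted against compound concentration.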

[2] = target: human RORγt ligand binding domain (RORγt LBD) (Homo sapiens (Human), UniProt P51449); assay: RORγt ThermoFluor assay (thermal shift binding affinity); details: estimated from thermal shift
human RORγt ligand binding domain (RORγt LBD), sequence (P51449 other isoform, or with tags, fused parts or gaps): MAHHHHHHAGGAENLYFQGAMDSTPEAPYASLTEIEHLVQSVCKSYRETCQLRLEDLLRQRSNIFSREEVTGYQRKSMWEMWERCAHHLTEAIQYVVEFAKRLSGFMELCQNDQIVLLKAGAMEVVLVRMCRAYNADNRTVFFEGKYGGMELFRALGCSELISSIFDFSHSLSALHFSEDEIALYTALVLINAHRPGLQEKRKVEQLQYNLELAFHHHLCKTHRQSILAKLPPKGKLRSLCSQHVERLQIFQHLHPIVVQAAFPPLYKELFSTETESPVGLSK
Procedure, shortened: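 Thermal shift used 0.065 mg/mL RORγt LBD with 60 μM 1,8-ANS in 100 mM Hepes pH 7.0, 10 mM NaCl, 2.5 mM GSH and 0.002% Tween-20, heated at 1 °C/min. Fluorescence was excited at 380–400 nm and emission read at 500 nm.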

[3] = test system: IL-17 production by CD4 T cells; assay: Human Th17 assay (IL-17 production by CD4 T cells under Th17 differentiation); type: cell-based; details: human CD4+ T cells, IL-17 after 3 days, read-out: Human Th17 Assay, IC50 μM
Description: The human Th17 assay tests the effect of RORγt modulatory compounds on IL-17 production by CD4 T cells under conditions which favor Th17 differentiation.
Total CD4^+ T cells were isolated from the peripheral blood mononuclear cells (PBMC) of healthy donors using a CD4^+ T cell isolation kit II, following the manufacturer's instructions (Miltenyi Biotec). Cells were resuspended in a medium of RPMI-1640 supplemented with 10% fetal bovine serum, penicillin, streptomycin, glutamate, and β-mercaptoethanol and were added to 96-well plates at 1.5×10^5 per 100 μL per well. 50 μL of compound at titrated concentrations in DMSO were added into each well at final DMSO concentration at 0.2%. Cells were incubated for 1 hour, then 50 μL of Th17 cell differentiation medium was added to each well. The final concentrations of antibodies and cytokines (R&D Systems) in differentiation medium were: 3×10^6/mL anti-CD3/CD28 beads (prepared using human T cell activation/expansion kit, Miltenyi Biotec), 10 μg/mL anti-IL4, 10 μg/mL anti-IFNγ, 10 ng/mL IL1β, 10 ng/mL IL23, 50 ng/mL IL6, 3 ng/mL TGFβ and 20 U/mL IL2. Cells were cultured at 37° C. and 5% CO2 for 3 days. Supernatants were collected and the accumulated IL-17 in culture was measured by using MULTI-SPOT® Cytokine Plate following manufacture's instruction (Meso Scale Discovery). The plate was read using Sector Imager 6000, and IL-17 concentration was extrapolated from the standard curve. The IC50s were determined by GraphPad.

SMILES | IC50 [1] | inhibition at 6 µM [1] [%] | Kd [2] [nM] | IC50 [3] [µM] | IC50 ([3]; Homo sapiens, CD4+ T, 72 h) [µM] | RORγt reporter Assay, % inhibition @ 6 μM [1] [%]
COc1nc2ccc(C(O)(c3ccc(C(F)(F)F)nc3)c3cncn3C)cc2c(Cl)c1Cc1ccc(C(F)(F)F)nc1 (single isomer, unassigned) [Example 94B, (4-Chloro-2-methoxy-3-((6-(trifluoromethyl)pyridin-3-yl)methyl)quinolin-6-yl)(1-methyl-1H-imidazol-5-yl)(6-(trifluoromethyl)pyridin-3-yl)methanol] | 0.21 µM | 96 | 98 | 1.9 | – | –
COc1nc2ccc(C(O)(c3cnnn3C)C3CN(C(C)=O)C3)cc2c(Cl)c1Cc1ccc(C(F)(F)F)cc1 (single isomer, unassigned) [Example 97B, 1-(3-((4-Chloro-2-methoxy-3-(4-(trifluoromethyl)benzyl)quinolin-6-yl)(hydroxy)(1-methyl-1H-1,2,3-triazol-5-yl)methyl)azetidin-1-yl)ethanone] | 0.0059 µM | 98 | 1.4 | 0.0034 | – | –
COc1nc2c(OC)cc(C(O)(c3ccc(C(F)(F)F)nc3)c3cncn3C)cc2c(Cl)c1Cc1ccc(-n2cccn2)cc1 (single isomer, unassigned) [Example 59B, (3-(4-(1H-pyrazol-1-yl)benzyl)-4-chloro-2,8-dimethoxyquinolin-6-yl)(1-methyl-1H-imidazol-5-yl)(6-(trifluoromethyl)pyridin-3-yl)methanol] | 0.14 µM | 106 | 4.4 | – | 0.098 | –
Cn1cncc1C(O)(c1ccc(C(F)(F)F)nc1)c1ccc2nc(N3CCC3)c(Cc3ccc(C(F)(F)F)cc3)c(Cl)c2c1 (single isomer, unassigned) [Example 92B, (2-(Azetidin-1-yl)-4-chloro-3-(4-(trifluoromethyl)benzyl)quinolin-6-yl)(1-methyl-1H-imidazol-5-yl)(6-(trifluoromethyl)pyridin-3-yl)methanol] | 0.1 µM | 96 | 12 | 0.034 | – | –
COc1nc2ccc(C(O)(c3cnnn3C)c3cnc(C)n3C)cc2c(C#N)c1Cc1ccc(C(F)(F)F)cc1 (single isomer, unassigned) [Example 81B, 6-((1,2-Dimethyl-1H-imidazol-5-yl)(hydroxy)(1-methyl-1H-1,2,3-triazol-5-yl)methyl)-2-methoxy-3-(4-(trifluoromethyl)benzyl)quinoline-4-carbonitrile] | 0.002 µM and ~0.0002 µM | 104 | 0.05 | – | 0.0022 | –
COc1nc2ccc(C(O)(c3ccc(C#N)cc3)c3cncn3C)cc2c(C#N)c1Cc1ccc(C(F)(F)F)cc1 (single isomer, unassigned) [Example 96B, 6-((4-cyanophenyl)(hydroxy)(1-methyl-1H-imidazol-5-yl)methyl)-2-methoxy-3-(4-(trifluoromethyl)benzyl)quinoline-4-carbonitrile] | 0.16 µM | 97 | 48 | 0.05 | – | –
Cc1cc(C(O)(c2ccc(C#N)cc2)c2cncn2C)cc2c(C#N)c(Cc3ccc(-n4cccn4)cc3)c(C#N)nc12 (single isomer, unassigned) [Example 66C, 3-(4-(1H-pyrazol-1-yl)benzyl)-6-((4-cyanophenyl)(hydroxy)(1-methyl-1H-imidazol-5-yl)methyl)-8-methylquinoline-2,4-dicarbonitrile] | 0.029 µM | – | 7.9 | 0.04 | – | 101
COc1nc2ccc(C(O)(c3ccc(C(F)(F)F)nc3)c3cncn3C)cc2c(C#N)c1Cc1ccc(-n2cccn2)cc1 (single isomer, unassigned) [Example 73C, 3-(4-(1H-Pyrazol-1-yl)benzyl)-6-(hydroxy(1-methyl-1H-imidazol-5-yl)(6-(trifluoromethyl)pyridin-3-yl)methyl)-2-methoxyquinoline-4-carbonitrile] | 0.31 µM | – | 34 | 0.13 | – | 99

Second part, the compound after the results:

IC50 [1] | inhibition at 6 µM [1] [%] | Kd [2] [nM] | IC50 [3] [µM] | IC50 ([3]; Homo sapiens, CD4+ T, 72 h) [µM] | RORγt reporter Assay, % inhibition @ 6 μM [1] [%] | SMILES
0.35 µM | 72 | 18 | – | 0.59 | – | Cn1cncc1C(O)(c1ccc(Cl)cc1)c1ccc2nc(Cl)c(Cc3ccccc3)c(Cl)c2c1 (stereo not shown) [Example 1, (3-Benzyl-2,4-dichloroquinolin-6-yl)(4-chlorophenyl)(1-methyl-1H-imidazol-5-yl)methanol]
0.29 µM | 97 | 85 | – | 0.3 | – | Cc1cc(C(O)(c2ccc(Cl)cc2)c2cncn2C)cc2c(Cl)c(Cc3ccc(-n4cccn4)cc3)c(Cl)nc12 (stereo not shown) [Example 85, (3-(4-(1H-Pyrazol-1-yl)benzyl)-2,4-dichloro-8-methylquinolin-6-yl)(4-chlorophenyl)(1-methyl-1H-imidazol-5-yl)methanol]
0.045 µM | – | 15 | – | 0.033 | 101 | COc1nc2ccc(C(O)(c3ccc(C#N)cc3)c3cncn3C)cc2c(C#N)c1Cc1ccc(-n2cccn2)cc1 (single isomer, unassigned) [Example 76C, 3-(4-(1H-Pyrazol-1-yl)benzyl)-6-((4-cyanophenyl)(hydroxy)(1-methyl-1H-imidazol-5-yl)methyl)-2-methoxyquinoline-4-carbonitrile]
0.06 µM | – | 5.3 | 0.069 | – | 102 | COc1ccc(C(O)(c2ccc3nc(OC)c(Cc4ccc(-n5cccn5)cc4)c(Cl)c3c2)c2cncs2)cn1 (single isomer, unassigned) [Example 20C, (3-(4-(1H-pyrazol-1-yl)benzyl)-4-chloro-2-methoxyquinolin-6-yl)(6-methoxypyridin-3-yl)(thiazol-5-yl)methanol]
0.13 µM | 103 | 68 | – | 0.1 | – | OC(c1ccc(Cl)cc1)(c1cccnc1)c1ccc2nc(Cl)c(Cc3ccc(-n4cccn4)cc3)c(Cl)c2c1 (stereo not shown) [Example 45, (3-(4-(1H-Pyrazol-1-yl)benzyl)-2,4-dichloroquinolin-6-yl)(4-chlorophenyl)(pyridin-3-yl)methanol]
0.16 µM | 104 | 75 | – | 0.3 | – | Cn1cncc1C(O)(c1ccc(Cl)cc1)c1ccc2nc(Cl)c(Cc3ccc(-n4cccn4)cc3)c(Cl)c2c1 (stereo not shown) [Example 11, (3-(4-(1H-Pyrazol-1-yl)benzyl)-2,4-dichloroquinolin-6-yl)(4-chlorophenyl)(1-methyl-1H-imidazol-5-yl)methanol.TFA]
0.18 µM | – | 150 | – | 0.14 | 90 | CCN(CC)c1nc2ccc(C(O)(c3ccc(Cl)cc3)c3cncn3C)cc2c(Cl)c1Cc1ccc(-n2cccn2)cc1 (single isomer, unassigned) [Example 75C, (3-(4-(1H-Pyrazol-1-yl)benzyl)-4-chloro-2-(diethylamino)quinolin-6-yl)(4-chlorophenyl)(1-methyl-1H-imidazol-5-yl)methanol]
0.057 µM | 117 | 11 | – | 0.066 | – | OC(c1cccnc1)(c1cccc(Cl)c1)c1ccc2nc(Cl)c(Cc3ccc(-n4cccn4)cc3)c(Cl)c2c1 (stereo not shown) [Example 5, (3-(4-(1H-Pyrazol-1-yl)benzyl)-2,4-dichloroquinolin-6-yl)(3-chlorophenyl)(pyridin-3-yl)methanol.TFA]
